Test results reported in article PMC9798004 (Frontiers in Psychiatry, 2022).
Entries after “also recorded” stand apart in the source; their conditions may differ.

Experiments:
Assay in all cases: PathHunter β-arrestin assay
Type in all cases: cell-based
ADORA3 = biological target: T1, ADORA3 (Homo sapiens, UniProt P0DMS8); conditions: antagonist mode vs EC80 of control agonist, 10-point curve
T1 construct: host or cells: CHO

CALCR-RAMP2 = CALCR-RAMP2 (Homo sapiens, UniProt O60895+P30988); conditions: antagonist mode vs EC80 of control agonist, 10-point curve
CHRM2 = biological target: T2, CHRM2 (Homo sapiens, UniProt P08172); conditions: antagonist mode vs EC80 of control agonist, 10-point curve
T2 sequence (P08172 1-466): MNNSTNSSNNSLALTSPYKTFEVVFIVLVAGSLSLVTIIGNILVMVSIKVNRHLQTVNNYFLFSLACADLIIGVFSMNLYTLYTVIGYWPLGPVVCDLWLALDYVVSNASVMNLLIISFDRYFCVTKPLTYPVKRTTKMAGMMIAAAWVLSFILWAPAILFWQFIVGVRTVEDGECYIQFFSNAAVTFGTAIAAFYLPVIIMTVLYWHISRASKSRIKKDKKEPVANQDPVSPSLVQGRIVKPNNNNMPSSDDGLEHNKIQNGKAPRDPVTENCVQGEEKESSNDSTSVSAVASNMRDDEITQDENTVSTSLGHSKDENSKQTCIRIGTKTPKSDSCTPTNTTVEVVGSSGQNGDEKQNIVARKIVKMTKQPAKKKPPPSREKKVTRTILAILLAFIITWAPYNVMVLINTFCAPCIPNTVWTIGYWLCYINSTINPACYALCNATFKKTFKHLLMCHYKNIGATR

CNR1 (CB1) = biological target: T3, CNR1 (CB1) (Homo sapiens, UniProt P21554); conditions: agonist mode
T3 construct: host or cells: CHO

DRD2L = DRD2L (Homo sapiens, UniProt P14416); conditions: antagonist mode, up to 30 μM
DRD5 = DRD5 (Homo sapiens, UniProt P21918); conditions: antagonist mode vs EC80 of control agonist, 10-point curve
GALR2 = biological target: T4, GALR2 (Homo sapiens, UniProt O43603); conditions: antagonist mode, up to 30 μM
T4 construct: purchased Eurofins DiscoverX (PathHunter gpcrMAX)

CCR6 = biological target: T5, CCR6 (Homo sapiens, UniProt P51684); conditions: antagonist mode, up to 30 μM
T5 construct: purchased Eurofins DiscoverX (PathHunter gpcrMAX)
T5 sequence (P51684 1-374): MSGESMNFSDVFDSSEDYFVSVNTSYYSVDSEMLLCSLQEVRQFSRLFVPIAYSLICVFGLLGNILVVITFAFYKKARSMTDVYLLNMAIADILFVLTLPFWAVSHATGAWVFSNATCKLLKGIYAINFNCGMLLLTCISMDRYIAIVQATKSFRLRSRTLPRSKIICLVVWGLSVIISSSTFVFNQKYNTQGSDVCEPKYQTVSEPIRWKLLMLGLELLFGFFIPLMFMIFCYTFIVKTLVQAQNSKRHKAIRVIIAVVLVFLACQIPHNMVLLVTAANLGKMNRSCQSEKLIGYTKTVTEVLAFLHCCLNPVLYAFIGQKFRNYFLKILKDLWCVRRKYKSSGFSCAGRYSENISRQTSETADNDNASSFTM

CCR9 = biological target: T6, CCR9 (Homo sapiens, UniProt P51686); conditions: antagonist mode, up to 30 μM
T6 construct: purchased Eurofins DiscoverX (PathHunter gpcrMAX)
T6 sequence (P51686 1-369): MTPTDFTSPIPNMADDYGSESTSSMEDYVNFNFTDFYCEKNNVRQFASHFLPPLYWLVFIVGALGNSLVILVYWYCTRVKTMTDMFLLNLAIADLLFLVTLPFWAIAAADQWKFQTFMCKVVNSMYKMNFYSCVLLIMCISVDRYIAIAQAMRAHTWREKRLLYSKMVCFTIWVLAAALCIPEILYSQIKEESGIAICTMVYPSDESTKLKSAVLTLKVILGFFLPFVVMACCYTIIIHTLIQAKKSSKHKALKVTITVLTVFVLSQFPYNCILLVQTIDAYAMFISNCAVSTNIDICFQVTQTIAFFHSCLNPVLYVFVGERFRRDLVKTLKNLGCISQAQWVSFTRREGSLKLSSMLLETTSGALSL

GLP2R = biological target: T7, GLP2R (Homo sapiens, UniProt O95838); conditions: antagonist mode vs EC80 of control agonist, 10-point curve
T7 sequence (O95838 1-553): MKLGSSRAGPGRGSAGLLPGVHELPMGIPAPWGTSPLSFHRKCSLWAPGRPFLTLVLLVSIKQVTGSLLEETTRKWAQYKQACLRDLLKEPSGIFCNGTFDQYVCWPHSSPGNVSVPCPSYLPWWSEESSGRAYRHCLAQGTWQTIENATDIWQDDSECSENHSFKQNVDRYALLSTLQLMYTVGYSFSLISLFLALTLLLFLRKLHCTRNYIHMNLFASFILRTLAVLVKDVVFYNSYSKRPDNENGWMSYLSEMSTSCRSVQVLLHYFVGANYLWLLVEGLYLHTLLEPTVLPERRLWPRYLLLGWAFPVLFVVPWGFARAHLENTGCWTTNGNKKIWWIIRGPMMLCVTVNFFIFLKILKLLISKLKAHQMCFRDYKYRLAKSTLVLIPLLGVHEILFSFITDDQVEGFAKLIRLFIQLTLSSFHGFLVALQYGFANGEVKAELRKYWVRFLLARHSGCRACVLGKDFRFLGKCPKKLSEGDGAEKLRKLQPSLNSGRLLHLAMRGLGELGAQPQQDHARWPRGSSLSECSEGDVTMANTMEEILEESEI
Procedure, shortened: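 10-pt CRC, 1.5–30 μM, technical replicate; antagonist mode vs agonist at EC80 where applicable. Agonist and antagonist curves run in parallel, Z' >0.5. RC50 by four-parameter fit of normalized data.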

P2RY6 = P2RY6 (Homo sapiens, UniProt Q15077); conditions: antagonist mode, up to 30 μM
MCHR1 = MCHR1 (Homo sapiens, UniProt Q99705); conditions: antagonist mode, up to 30 μM
UTR2 = UTR2 (Homo sapiens, UniProt Q9UKP6); conditions: antagonist mode, up to 30 μM
UTR2, sequence (Q9UKP6 whole entry): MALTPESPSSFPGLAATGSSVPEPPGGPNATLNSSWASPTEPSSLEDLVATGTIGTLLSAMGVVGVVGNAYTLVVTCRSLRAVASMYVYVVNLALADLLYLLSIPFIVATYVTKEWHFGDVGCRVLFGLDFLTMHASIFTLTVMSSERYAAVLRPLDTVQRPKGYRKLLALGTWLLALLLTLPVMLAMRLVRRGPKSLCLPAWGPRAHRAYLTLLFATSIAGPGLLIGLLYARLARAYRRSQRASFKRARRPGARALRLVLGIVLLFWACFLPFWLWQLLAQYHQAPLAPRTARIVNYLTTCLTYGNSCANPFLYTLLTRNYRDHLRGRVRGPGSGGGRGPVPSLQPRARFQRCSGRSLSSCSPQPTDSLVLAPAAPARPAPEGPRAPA

T3 sequence (P21554 whole entry): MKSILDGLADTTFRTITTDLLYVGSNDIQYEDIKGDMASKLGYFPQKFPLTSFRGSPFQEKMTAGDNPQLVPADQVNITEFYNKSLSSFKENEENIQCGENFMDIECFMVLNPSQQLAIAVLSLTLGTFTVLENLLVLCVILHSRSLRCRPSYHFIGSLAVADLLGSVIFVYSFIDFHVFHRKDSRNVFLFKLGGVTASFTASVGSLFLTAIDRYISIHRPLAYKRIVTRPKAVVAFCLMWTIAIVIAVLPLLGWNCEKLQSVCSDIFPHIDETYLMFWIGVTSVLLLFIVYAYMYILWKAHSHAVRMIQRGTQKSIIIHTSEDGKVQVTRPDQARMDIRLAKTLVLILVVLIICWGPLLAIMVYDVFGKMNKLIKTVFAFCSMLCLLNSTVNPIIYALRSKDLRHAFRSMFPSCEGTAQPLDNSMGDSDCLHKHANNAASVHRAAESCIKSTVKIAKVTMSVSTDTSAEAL
MCHR1, sequence (Q99705 whole entry): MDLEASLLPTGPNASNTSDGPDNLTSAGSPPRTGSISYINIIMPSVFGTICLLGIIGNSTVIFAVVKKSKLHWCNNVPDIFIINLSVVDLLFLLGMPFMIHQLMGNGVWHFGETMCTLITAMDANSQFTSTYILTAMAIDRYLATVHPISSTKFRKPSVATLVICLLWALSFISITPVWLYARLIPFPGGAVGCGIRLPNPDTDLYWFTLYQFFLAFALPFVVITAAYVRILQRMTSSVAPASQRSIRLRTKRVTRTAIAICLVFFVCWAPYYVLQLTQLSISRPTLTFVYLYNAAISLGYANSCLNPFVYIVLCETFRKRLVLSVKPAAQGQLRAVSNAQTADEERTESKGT
DRD2L, sequence (P14416 whole entry): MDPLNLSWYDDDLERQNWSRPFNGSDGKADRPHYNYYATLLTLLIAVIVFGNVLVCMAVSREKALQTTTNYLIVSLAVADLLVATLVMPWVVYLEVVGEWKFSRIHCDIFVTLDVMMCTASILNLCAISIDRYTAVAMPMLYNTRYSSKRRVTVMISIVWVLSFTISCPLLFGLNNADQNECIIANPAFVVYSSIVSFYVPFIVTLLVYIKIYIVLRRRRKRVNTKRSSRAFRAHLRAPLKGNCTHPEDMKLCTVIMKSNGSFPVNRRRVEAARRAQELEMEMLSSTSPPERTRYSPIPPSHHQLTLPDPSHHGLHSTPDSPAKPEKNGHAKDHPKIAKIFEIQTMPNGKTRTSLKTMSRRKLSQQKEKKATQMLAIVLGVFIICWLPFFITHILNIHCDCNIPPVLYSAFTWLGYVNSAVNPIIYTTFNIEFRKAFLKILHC
T1 sequence (P0DMS8 whole entry): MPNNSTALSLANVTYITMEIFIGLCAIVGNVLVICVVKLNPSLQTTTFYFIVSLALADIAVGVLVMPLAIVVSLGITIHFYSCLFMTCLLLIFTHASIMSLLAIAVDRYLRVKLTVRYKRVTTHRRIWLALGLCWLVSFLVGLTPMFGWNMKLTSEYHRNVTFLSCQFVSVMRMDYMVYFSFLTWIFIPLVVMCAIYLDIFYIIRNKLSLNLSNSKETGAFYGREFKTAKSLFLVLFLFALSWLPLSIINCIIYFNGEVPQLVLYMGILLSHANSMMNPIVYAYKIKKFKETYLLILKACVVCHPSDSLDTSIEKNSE
DRD5, sequence (P21918 whole entry): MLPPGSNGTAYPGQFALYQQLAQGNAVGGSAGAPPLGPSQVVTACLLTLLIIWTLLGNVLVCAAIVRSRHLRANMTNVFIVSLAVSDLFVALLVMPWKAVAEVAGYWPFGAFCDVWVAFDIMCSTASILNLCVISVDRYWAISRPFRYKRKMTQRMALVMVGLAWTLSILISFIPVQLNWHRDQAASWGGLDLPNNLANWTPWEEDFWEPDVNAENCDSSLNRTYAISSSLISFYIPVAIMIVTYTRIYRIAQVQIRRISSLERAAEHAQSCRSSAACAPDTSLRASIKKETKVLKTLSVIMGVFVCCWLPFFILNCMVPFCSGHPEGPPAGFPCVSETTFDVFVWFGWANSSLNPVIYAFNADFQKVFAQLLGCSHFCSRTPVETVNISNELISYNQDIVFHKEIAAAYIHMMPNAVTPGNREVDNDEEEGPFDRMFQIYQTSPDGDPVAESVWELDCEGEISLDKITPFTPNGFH
T4 sequence (O43603 whole entry): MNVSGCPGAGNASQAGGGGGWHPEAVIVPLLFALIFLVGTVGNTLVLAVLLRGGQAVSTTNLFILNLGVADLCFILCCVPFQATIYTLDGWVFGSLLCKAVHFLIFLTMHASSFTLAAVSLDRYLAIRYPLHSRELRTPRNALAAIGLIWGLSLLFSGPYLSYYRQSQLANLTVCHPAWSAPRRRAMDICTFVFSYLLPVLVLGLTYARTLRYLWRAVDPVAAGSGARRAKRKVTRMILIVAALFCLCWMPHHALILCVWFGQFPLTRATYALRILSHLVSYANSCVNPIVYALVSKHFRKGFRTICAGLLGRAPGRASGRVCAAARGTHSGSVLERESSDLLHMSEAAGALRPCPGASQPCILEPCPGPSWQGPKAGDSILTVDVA
CALCR-RAMP2, sequence (P30988 25-474): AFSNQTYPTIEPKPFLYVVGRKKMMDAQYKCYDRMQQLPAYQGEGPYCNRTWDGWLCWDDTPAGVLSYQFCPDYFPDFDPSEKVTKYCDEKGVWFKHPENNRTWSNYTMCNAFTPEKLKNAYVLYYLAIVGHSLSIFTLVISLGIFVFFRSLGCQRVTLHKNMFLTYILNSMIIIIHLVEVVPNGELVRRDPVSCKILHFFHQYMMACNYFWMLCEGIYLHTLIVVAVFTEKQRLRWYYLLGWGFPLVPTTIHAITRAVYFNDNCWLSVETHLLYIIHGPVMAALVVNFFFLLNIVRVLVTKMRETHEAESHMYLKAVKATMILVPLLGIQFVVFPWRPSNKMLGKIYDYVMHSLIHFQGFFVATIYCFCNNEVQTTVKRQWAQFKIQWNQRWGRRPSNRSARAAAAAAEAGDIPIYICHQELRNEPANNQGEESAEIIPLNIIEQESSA
CALCR-RAMP2, sequence (O60895 43-175 partner): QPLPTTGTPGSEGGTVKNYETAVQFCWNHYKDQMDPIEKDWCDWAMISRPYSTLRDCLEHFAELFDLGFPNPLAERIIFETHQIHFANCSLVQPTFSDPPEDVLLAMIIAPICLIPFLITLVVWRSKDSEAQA
P2RY6, sequence (Q15077 whole entry): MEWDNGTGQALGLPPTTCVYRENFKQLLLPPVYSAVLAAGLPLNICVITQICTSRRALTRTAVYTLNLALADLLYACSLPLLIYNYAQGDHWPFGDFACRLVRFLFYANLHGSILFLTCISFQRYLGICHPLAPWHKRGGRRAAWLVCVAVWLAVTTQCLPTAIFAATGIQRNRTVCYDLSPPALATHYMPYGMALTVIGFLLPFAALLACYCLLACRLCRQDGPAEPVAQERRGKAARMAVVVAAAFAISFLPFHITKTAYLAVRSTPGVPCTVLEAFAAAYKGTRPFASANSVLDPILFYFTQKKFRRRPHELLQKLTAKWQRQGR

COC(=O)[C@@H](NC(=O)c1nn(Cc2ccc(F)cc2)c2ccccc12)C(C)C [AMB-FUBINACA]
IC50 (ADORA3): 14.6 µM | IC50 (CALCR-RAMP2): 10.8 µM | IC50 (CHRM2): 12.9 µM | response of CB1-expressing cells at high concentration (CNR1 (CB1); 30 μM, response decreased above 1 μM): very little activity remaining at 30 μM | EC50 (CNR1 (CB1); data above 1 μM excluded from curve fitting): 0.0426 µM | inhibitory activity in concentration-response (DRD2L): Activity was only observed at the highest concentration (30 μM); also recorded: only inhibited at the highest 30 μM concentration | IC50 (DRD5): 10.7 µM | inhibitory activity in concentration-response (GALR2): did not produce any clear activity | inhibitory activity in concentration-response (CCR6): Activity was only observed at the highest concentration (30 μM) | inhibitory activity in concentration-response (CCR9): Activity was only observed at the highest concentration (30 μM); also recorded: only inhibited at the highest 30 μM concentration | IC50 (GLP2R): 13.1 µM | inhibitory activity in concentration-response (P2RY6): Activity was only observed at the highest concentration (30 μM) | inhibitory activity in concentration-response (MCHR1): Activity was only observed at the highest concentration (30 μM); also recorded: only inhibited at the highest 30 μM concentration | inhibitory activity in concentration-response (UTR2): did not produce any clear activity
